Row | melting point [°C] | SMILES
1 | 182 to 184 | C=Cc1cc(O)cc2cc(-c3ccc(O)cc3)oc12
2 | 128 to 129 | O=C(Cc1ccc(Cl)cc1)c1ccc(Br)cc1
3 | 145 to 148 | O=C(CCCCCl)Nc1nnc(SCc2ccccc2)s1
4 | 200 to 203 | CC1NC(=O)NN=C1c1ccccc1OCc1ccccc1 (stereo not given)
5 | 181 to 182 | CC(CC(=O)O)C(=O)c1ccc(-n2ccnc2)cc1 (stereo not given)
6 | 161 to 162 | NC(=O)CNC(=O)c1cccc(-c2ccc(F)c3cc(Cc4ccc(F)c(F)c4)sc23)c1
7 | 179 to 180 | CCCOc1ccc(Br)cc1-c1nc2c(C)cccc2c(=O)[nH]1
8 | 96 to 97 | O=C=Nc1ccc(Oc2cccc(Cl)n2)cc1
9 | 208 to 212 | COc1ccc(-c2nc(C(N)=O)c(N)nc2-c2ccccc2)cn1
10 | 68 to 70 | COc1ccccc1COc1ccc(S(=O)(=O)c2ccc(C)nc2Nc2cc(F)c(N(C)C)cc2Cl)cc1
11 | 151 to 153 | O=CNC1=NN(c2ccc(Cl)c(Cl)c2)CC1
12 | 152 to 154 | COc1cc(N)c(Cl)cc1C(=O)OCC12CCCN(CCC1)C2
13 | 130 to 132 | COC(=O)N1CC(C(N)=O)C(c2ccc(OC)c(OC3CCCC3)c2)C1 (stereo not given)
14 | 140 | COc1ccc(Cn2cc[nH]c2=S)cc1
15 | 143 to 145 | COc1cc(NS(=O)(=O)CC(=O)c2ccccc2)c2c(c1)OC(C)C2 (stereo not given)
16 | 76 to 82 | CCCCCCCCCCCCCCCCCC(=O)NC(C)c1c[nH]c(CCCCCCCCCCCCCCCCC)n1 (stereo not given)
17 | 80 to 85 | CCCCN1C(=O)CC(Sc2cc(C(C)(C)C)c(O)c(C(C)(C)C)c2)C1=O (stereo not given)
18 | > 300 | CCOC(=O)c1sc2[nH]c(=O)c(=O)[nH]c2c1C
19 | 158 | CN1CCC(Cc2nc3ccccc3n2Cc2ccc(CO)o2)CC1
20 | 115 to 117 | NCCc1ccc(Nc2ncc3c(n2)-c2ccccc2C(c2cccc(Br)c2)C3)cc1 (stereo not given)
21 | 66 to 68.5 | COC(=O)CC(C#Cc1cccc(-c2nc(C)no2)c1)c1ccc(OC)c(OC2CCCC2)c1 (racemic)
22 | 201 to 203 | C=C(c1ccc(N(C(=O)c2c(I)cccc2C(N)=O)C(C)C)c(C)c1)C(F)(F)F
23 | 172 to 174 | CC(C)(C)NC(=S)Nc1cc(Br)cc(Br)c1
24 | 80 to 82 | CCCCCCNC(C)=C1C(=O)OC(=O)C(C(C)=O)=C1O
25 | 103 to 105 | O=C(CCCCCCS(=O)c1ccc(Cl)cc1)NO (stereo not given)
26 | 188 to 191 | COc1ccc(S(=O)(=O)N2Cc3ccccc3N(C(=O)COc3ccccc3)CC2C(=O)O)cc1 (stereo not given)
27 | 218 to 220 | O=C(c1ccncc1)N1CCN(Cc2ccc3c(c2)Cc2c(-c4ccsc4)n[nH]c2-3)CC1
28 | 58 | C=COc1ccc(C(=O)c2ccccc2)cc1
29 | 147 to 151 | CN(C)S(=O)(=O)c1cc(-c2csc(=Nc3ccc(C(F)(F)F)cc3)n2C)ccc1Cl

The remaining lines, values behind:

Row | SMILES | melting point [°C]
30 | O=c1c2c(Cl)cc(Cl)cc2n(Cc2ccccc2)c(=O)n1CCc1ccccc1 | 169 to 171
31 | COCn1nccc1C(=O)c1cc2c(c(Cl)c1Cl)OC(C(=O)O)O2 (stereo not given) | 168 to 170
32 | CCCCCCc1cn(C)cc(-c2cccc(C(F)(F)F)c2)c1=O | 89.5 to 90.5
33 | COc1ccc(-n2cc(CCCO)c(C(C)C)n2)nn1 | 122 to 123
34 | Cc1ccc2oc(=O)c(C(=O)Oc3cc(F)ccc3[N+](=O)[O-])cc2c1 | 224 to 226
35 | CCc1cn(C2CC(O)C(CNC(=O)Cc3cccs3)O2)c(=O)[nH]c1=O (stereo not given) | 215 to 217
36 | CCC(NC(=O)c1c(O)c(-c2ccccc2)nc2ccccc12)c1ccccc1 (single isomer, unassigned; (-)) | 122 to 125
37 | NC(=O)c1c(C(=O)O)cccc1[N+](=O)[O-] | 188
38 | Nc1c([N+](=O)[O-])sc2ccc([N+](=O)[O-])cc12 | 288 to 291
39 | O=c1oc(-c2ccccc2)cc(O)c1SCc1cccc(OCCc2ccccc2)c1 | 85 to 90
40 | N#CC1CCc2cc(C(N)=O)ccc2C1 (stereo not given) | 180 to 182
41 | O=C(NNS(=O)(=O)c1ccccc1)c1nccc2ccccc12 | 198 to 200
42 | CC(C)(CF)C(=O)C(Oc1ccc(Cl)cc1)n1cncn1 (stereo not given) | 60 to 63
43 | CC(C)N(Cc1nc(-c2ncn3c2CN(C)C(=O)c2c(Cl)cccc2-3)no1)C(C)C | 58 to 63
44 | CN1CCCC1c1ccc(Nc2cc(Br)cn(C)c2=O)nc1 (stereo not given) | 143 to 145
45 | COC(=O)c1c(C(=O)NC(C)(C(N)=O)C(C)C)cccc1[N+](=O)[O-] (stereo not given) | 100 to 107
46 | CN(C)C1CCc2c(c3ccccc3n2C)C1 (stereo not given) | > 300
47 | O=C(O)Cn1c(=O)sc2cc(-c3ccccc3)c(Cl)cc21 | 262 to 266
48 | O=C(O)Cc1nc(-c2ccc(Cl)cc2)oc1-c1ccsc1 | 218 to 219
49 | CC(C)(C)OC(=O)C1Cc2ccccc2CN1C(=O)CBr (stereo not given) | 92 to 95
50 | Cc1noc(-c2ccc([C@H]3CN(C(=O)OC(C)(C)C)CCO3)cc2)n1 | 116

Row | SMILES | melting point [°C]
51 | O=CN1CCN(c2nc3cccccc-3n2)CC1 | 170 to 173
52 | CCCCCCCCCCCCCCCC(=O)NC#N | 62 to 65
53 | CCOP(=O)(CCCCC1(C(=O)NCC(F)(F)F)c2ccccc2-c2ccccc21)OCC | 87 to 89
54 | c1ccc2cc(-c3nc(COc4ccc(CCCn5ccnc5)cc4)co3)ccc2c1 | 131 to 132
55 | O=C(NCCCCCCCNC(=O)c1ccc(OC(F)(F)F)cc1)c1ccc(OC(F)(F)F)cc1 | 150 to 151
56 | CCCCc1nn(-c2ccccc2C(F)(F)F)c(=O)n1Cc1ccc(-c2cc(CCC)ccc2S(=O)(=O)NC(=O)c2ccccc2Cl)cc1F | 79 to 82
57 | Fc1ccc(Nc2ncnc3cnc(NCC4CCNCC4)nc23)cc1Cl | 204 to 206
58 | CSc1ncc2cc(Oc3ccc(F)cc3F)c(NC(=O)NC(C)(C)C)nc2n1 | 195 to 201
59 | Clc1ccc(NN=Cc2ccccc2)cc1 | 122 to 123
60 | CSCOc1ccc(-c2coc3ccc(-c4nnc(C)o4)cc23)cc1 | 116 to 117
61 | Cc1noc(NS(=O)(=O)c2sc3ccc(Cl)cc3c2C)c1Br | 153 to 155
62 | Cc1cc(C)c2cccc(OCc3c(Cl)ccc(S(=O)(=O)N4CC(O)CC4C(=O)O)c3Cl)c2n1 (stereo not given) | > 260
63 | O=C(O)c1cccc(NCCOc2cccc3ccccc23)c1 | 150 to 152
64 | ClC1(CN2c3ccccc3Sc3ccccc32)CN2CCC1CC2 (stereo not given) | 156 to 160
65 | CCCC1CCCCc2c1oc(=O)c(C(c1ccccc1)C1CC1)c2O (stereo not given) | 60 to 65
66 | O=C(Nc1ccc2cc(CN3CCCC3)cnc2c1F)c1ccc(-c2ccc(Cl)cc2)cc1F | 208
67 | CC(C)(C)OC(=O)N1CC(Oc2ccc(N)nc2)C1 | 83 to 84
68 | CC12CC(N3CCC(O)CC3)C(O)CC1CCC1C2CCC2(C)C(O)C(N3CCCC3)CC12 (stereo not given) | 188 to 190
69 | CC1Cc2ccc(Cl)cc2C(c2ccc([N+](=O)[O-])cc2)=NN1C(=O)C(F)(F)F (stereo not given) | 150 to 152
70 | CC(=O)OC1CCC2(C)C(CCC3C2CC(OC(C)=O)C2(C)C(C(C)CCC=O)CCC32)C1 (stereo not given) | 145
